This is an account of results in ChEMBL document CHEMBL2057062, “Synthesis and biological evaluation of 4-phenylquinazoline-2-carboxamides designed as a novel class of potent ligands of the translocator protein” (J Med Chem, 2012).

By inhibition is commonly meant the percentage by which the read-out fell short of the control. The low end stands for little suppression, the high end for strong suppression. In general, Ki refers to a measure of affinity in units of concentration, obtained from inhibition or displacement. Higher therefore signals a looser hold on the target.

Calls of active or inactive are those of the source. No cut-off for these calls is given here.

The species named for assay [1] is Rattus norvegicus. Description: Displacement of [3H]flumazenil from central benzodiazepine receptor in rat cerebral cortex membranes at 10 uM after 90 mins by competitive binding assay. The class given is cell membranes. The conditions noted are these: Membrane.
Assay [2] deals with Translocator protein (Rattus norvegicus, UniProt P16257). Description: Displacement of [3H]PK11195 from TSPO in rat kidney mitochondrial membranes by competitive binding assay. The format is cell membranes, Membrane.
For assay [3], the target named is Translocator protein (Rattus norvegicus) (UniProt P16257). Description: Displacement of [3H]PK11195 from TSPO in rat kidney mitochondrial membranes at 1 uM by competitive binding assay. The class given is cell membranes. The conditions noted are these: Membrane.
Assay [4] relates to C6. Description: Increase in pregnenolone production in rat C6 glioma cells at 40 uM after 2 hrs by ELISA. The class given is functional, cell-based. For orientation: An ELISA detects its analyte on a solid surface through an enzyme-linked reagent.
Assay [5] has as its system U-87MG ATCC. Description: Antiproliferative activity against human U87MG cells assessed as cell viability at 100 uM after 24 hrs by MTS assay. The class given is functional, cell-based.

In assay [1], `CC[C@H](C)N(C)C(=O)c1nc(-c2ccc(Cl)cc2)c2ccccc2n1` returned an inhibition of 0%. The affinity in assay [2], expressed as Ki, was 2.51 nM.

Take `O=C(c1nc(-c2ccc(Cl)cc2)c2cc(Cl)ccc2n1)N1CCCC1`: the inhibition in assay [1] came out at 0%; in assay [3], 64%.

In assay [1], `O=C(c1nc(-c2ccccc2Cl)c2cc(Cl)ccc2n1)N1CCCCC1` showed an inhibition of 0%. In assay [2], the affinity corresponds to a Ki of 273 nM.

Compound `O=C(c1nc(-c2ccccc2Cl)c2ccccc2n1)N1CCCCCC1` returned an inhibition in assay [1] of 0%. Further, the Ki in assay [2] came to 8.77 nM.

With `CCCCCCN(CCCCCC)C(=O)c1nc(-c2ccccc2Cl)c2cc(Cl)ccc2n1`, in assay [1], the inhibition turned out to be 0%. This compound came in with an inhibitory constant (Ki) in assay [2] of 30.4 nM.

Take `CCC(C)N(C)C(=O)c1nc(-c2ccccc2Cl)c2cc(Cl)ccc2n1` (stereo unspecified): the results for the inhibition in assay [1] and in assay [3] were 0% and 43%, respectively.

Compound `CC(C)N(C)C(=O)c1nc(-c2ccc(Cl)cc2)c2ccccc2n1` yielded an inhibition in assay [1] of 0%. In addition, the Ki in assay [2] was determined as 50.4 nM.

Consider `CC(C)N(C)C(=O)c1nc(-c2ccccc2)c2cc(Cl)ccc2n1`, for which the inhibition in assay [1] and in assay [3] was 0% throughout.

On to `CCC(C)N(C)C(=O)c1cc2ccccc2c(-c2ccccc2Cl)n1` (stereo unspecified), for which the outcome in assay [4] and in assay [5] was Active. Besides, the inhibition in assay [1] came to 0%.

Take `CC(C)N(C)C(=O)c1nc(-c2ccccc2)c2ccccc2n1`: the inhibition in assay [1] was found to be 0%. This compound registered an inhibition constant Ki in assay [2] of 70.3 nM.

`O=C(c1nc(-c2ccc(Cl)cc2)c2ccccc2n1)N1CCCCCC1` registered an inhibition in assay [1] of 0%. In assay [2], this compound showed a Ki of 84.3 nM.

`CN1C(=O)CN=C(c2ccccc2F)c2cc([N+](=O)[O-])ccc21` had an inhibition in assay [1] of 0%.

As to `CC(C)N(C)C(=O)c1nc(-c2ccccc2Cl)c2cc(Cl)ccc2n1`, the inhibition in assay [1] and in assay [3] was 0% throughout.

Take `CC(C)N(C)C(=O)c1nc(-c2ccccc2Cl)c2ccccc2n1`: the inhibition in assay [1] was determined as 0%. For the same compound, in assay [2], the Ki came to 12.5 nM.

Regarding `CC(C)CN(C)C(=O)c1nc(-c2ccccc2Cl)c2cc(Cl)ccc2n1`, the inhibition amounted to 0% in assay [1] and 77% in assay [3].

`O=C(c1nc(-c2ccccc2)c2ccccc2n1)N1CCCCCC1`: the inhibition in assay [1] was 0%; in assay [3], 79%.

Turning to `O=C(c1nc(-c2ccccc2Cl)c2ccccc2n1)N1CCCC1`, the inhibition in assay [1] was determined as 0%; in assay [3] it was 70%.

For `CCC(C)NC(=O)c1nc(-c2ccc(Cl)cc2)c2cc(Cl)ccc2n1` (stereo unspecified), the figures for the inhibition in assay [1] and in assay [3] were 0% and 49%, respectively.

Regarding `CCC(C)N(C)C(=O)c1nc(-c2ccccc2)c2ccccc2n1` (stereo unspecified), in assay [1], the inhibition came out at 0%. Moreover, the Ki in assay [2] stood at 3 nM.

In the case of `CCCCCCN(CCCCCC)C(=O)c1nc(-c2ccc(Cl)cc2)c2ccccc2n1`, in assay [4], the result was Active. Further, the inhibition in assay [1] was 0%. The same compound yielded a Ki in assay [2] of 3.42 nM.

On to `CC[C@@H](C)N(C)C(=O)c1nc(-c2ccccc2Cl)c2ccccc2n1`, for which the inhibition in assay [1] came to 0%. The inhibitory constant (Ki) in assay [2] stood at 1.55 nM.

Take `CC(C)CN(C)C(=O)c1nc(-c2ccc(Cl)cc2)c2ccccc2n1`: the inhibition in assay [1] amounted to 0%. In assay [2], this compound had a Ki of 20.7 nM.

As to `CCCCN(CCCC)C(=O)c1nc(-c2ccccc2)c2ccccc2n1`, the outcome in assay [4] was Active. This compound showed an inhibition in assay [1] of 0%. The compound further returned an inhibitory constant (Ki) in assay [2] of 3.3 nM.

`CCCCCN(CCCCC)C(=O)c1nc(-c2ccccc2)c2ccccc2n1` gave an inhibition in assay [1] of 0%.

Take `CC[C@@H](C)N(C)C(=O)c1nc(-c2ccc(Cl)cc2)c2ccccc2n1`: the inhibition in assay [1] was determined as 0%. In assay [2], this compound returned a Ki of 1.57 nM.

The compound `CCOC(=O)c1ncn2c1CN(C)C(=O)c1cc(F)ccc1-2` registered an inhibition in assay [1] of 0%.

The compound `CC[C@H](C)N(C)C(=O)c1nc(-c2ccccc2)c2ccccc2n1` had an inhibition in assay [1] of 0%. The compound further yielded a Ki in assay [2] of 6.09 nM.

The compound `CCCN(CCC)C(=O)Cc1c(-c2ccc(Cl)cc2)nc2ccc(Cl)cn12` showed an inhibition in assay [1] of 0%.

`CC(C)CN(C)C(=O)c1nc(-c2ccc(Cl)cc2)c2cc(Cl)ccc2n1` registered an inhibition in assay [1] of 0%. Further, in assay [2], the Ki came out at 60.7 nM.

Regarding `CCC(C)N(C)C(=O)c1nc(-c2ccc(Cl)cc2)c2ccccc2n1` (stereo unspecified), the result in assay [4] was Active. The inhibition in assay [1] is 0%. The Ki in assay [2] turned out to be 2.67 nM.

Regarding `CCC(C)NC(=O)c1nc(-c2ccccc2)c2cc(Cl)ccc2n1` (stereo unspecified), the inhibition in assay [1] and in assay [3] was 0% each time.

Consider `CC(C)CN(C)C(=O)c1nc(-c2ccccc2Cl)c2ccccc2n1`, for which the inhibition in assay [1] worked out at 0%. The affinity in assay [2], expressed as Ki, was 6.98 nM.

For the compound `O=C(c1nc(-c2ccccc2)c2cc(Cl)ccc2n1)N1CCCCC1`, the inhibition in assay [1] amounted to 0%; in assay [3] it was 46%.

`CCC(C)NC(=O)c1nc(-c2ccc(Cl)cc2)c2ccccc2n1` (stereo unspecified): the inhibition in assay [1] stood at 0%; in assay [3] it was 37%.

`CC[C@@H](C)N(C)C(=O)c1nc(-c2ccccc2)c2ccccc2n1`: in assay [1], the inhibition is 0%. Affinity in assay [2] was put at a Ki of 6.41 nM.

As for `CCCCCCN(CCCCCC)C(=O)c1nc(-c2ccccc2)c2ccccc2n1`, the outcome in assay [4] was inactive. In assay [1], this compound registered an inhibition of 0%. In addition, the outcome in assay [5] was Active. For the same compound, the inhibitory constant (Ki) in assay [2] was 0.69 nM.

In assay [1], `O=C(c1nc(-c2ccccc2Cl)c2ccccc2n1)N1CCCCC1` gave an inhibition of 0%. In assay [2], this compound came in with a Ki of 46 nM.

Turning to `CCCCN(C)C(=O)c1nc(-c2ccccc2)c2ccccc2n1`, in assay [4], the outcome was Active. In assay [1], this compound showed an inhibition of 0%. Also, the affinity in assay [2], expressed as Ki, was 46 nM.

For `CCCCCCN(CCCCCC)C(=O)c1nc(-c2ccc(Cl)cc2)c2cc(Cl)ccc2n1`, in assay [1], the inhibition is 0%. In assay [2], the inhibition constant (Ki) stood at 4.31 nM.

Regarding `CN1C(=O)CN=C(c2ccc(Cl)cc2)c2cc(Cl)ccc21`, in assay [4], the result was Active. The inhibition in assay [1] came to 0%.

As for `CCC(C)N(C)C(=O)c1nc(-c2ccccc2)c2cc(Cl)ccc2n1` (stereo unspecified), the inhibition in assay [1] came to 0%; in assay [3] it was 22%.

`CC(C)CN(C)C(=O)c1nc(-c2ccccc2)c2ccccc2n1`: the inhibition in assay [1] was 0%. The same compound showed a Ki in assay [2] of 66.5 nM.

Turning to `CCC(C)NC(=O)c1nc(-c2ccccc2Cl)c2cc(Cl)ccc2n1` (stereo unspecified), the inhibition in assay [1] and in assay [3] was 0% each time.

With `CC(C)CN(C)C(=O)c1nc(-c2ccccc2)c2cc(Cl)ccc2n1`, the inhibition in assay [1] worked out at 0%. Besides, in assay [2], the Ki was determined as 842 nM.

Take `O=C(c1nc(-c2ccccc2)c2cc(Cl)ccc2n1)N1CCCCCC1`: the inhibition in assay [1] came to 0%; in assay [3], 38%.

Regarding `CCC(C)NC(=O)c1nc(-c2ccccc2)c2ccccc2n1` (stereo unspecified), the inhibition in assay [1] and in assay [3] was 0% each time.

On to `CCC(C)N(C)C(=O)c1nc(-c2ccccc2Cl)c2ccccc2n1` (stereo unspecified), for which the result in assay [4] and in assay [5] was Active. In assay [1], this compound came in with an inhibition of 0%. The compound also yielded an inhibition constant (Ki) in assay [2] of 3.06 nM.

On to `CCCCCCN(CCCCCC)C(=O)c1nc(-c2ccccc2)c2cc(Cl)ccc2n1`, for which the inhibition in assay [1] is 0%. The same compound returned an inhibition constant Ki in assay [2] of 38.5 nM.

Compound `CCCN(CCC)C(=O)c1nc(-c2ccccc2)c2ccccc2n1` came in with an inhibition in assay [1] of 0%. In assay [2], this compound had a Ki of 36.8 nM.

As for `O=C(c1nc(-c2ccc(Cl)cc2)c2ccccc2n1)N1CCCC1`, the inhibition in assay [1] is 0%. The compound also registered an inhibitory constant (Ki) in assay [2] of 644 nM.

`O=C(c1nc(-c2ccccc2)c2ccccc2n1)N1CCCCC1`: the figures for the inhibition in assay [1] and in assay [3] were 0% and 61%, respectively.

As for `CC[C@H](C)N(C)C(=O)c1nc(-c2ccccc2Cl)c2ccccc2n1`, the inhibition in assay [1] was found to be 0%. Besides, in assay [2], the affinity corresponds to a Ki of 2.2 nM.

Regarding `O=C(c1nc(-c2ccccc2)c2ccccc2n1)N1CCCC1`, the inhibition in assay [1] stood at 0%; in assay [3] it was 36%.

`CC(C)N(C)C(=O)c1nc(-c2ccc(Cl)cc2)c2cc(Cl)ccc2n1`: the inhibition in assay [1] turned out to be 0%; in assay [3], 39%.

In assay [1], `O=C(c1nc(-c2ccc(Cl)cc2)c2ccccc2n1)N1CCCCC1` gave an inhibition of 0%. In assay [2], this compound yielded a Ki of 493 nM.

In the case of `CCCCCCN(CCCCCC)C(=O)c1nc(-c2ccccc2Cl)c2ccccc2n1`, the inhibition in assay [1] was determined as 0%. This compound showed a Ki in assay [2] of 65.1 nM.

Take `O=C(c1nc(-c2ccccc2Cl)c2cc(Cl)ccc2n1)N1CCCC1`: the inhibition turned out to be 0% in assay [1] and 73% in assay [3].

Turning to `O=C(c1nc(-c2ccccc2)c2cc(Cl)ccc2n1)N1CCCC1`, the inhibition in assay [1] was found to be 0%; in assay [3], 43%.

With `O=C(c1nc(-c2ccc(Cl)cc2)c2cc(Cl)ccc2n1)N1CCCCC1`, the values for the inhibition in assay [1] and in assay [3] were 0% and 76%, respectively.

For the compound `CCC(C)N(C)C(=O)c1nc(-c2ccc(Cl)cc2)c2cc(Cl)ccc2n1` (stereo unspecified), the inhibition in assay [1] is 0%. The compound also gave a Ki in assay [2] of 179 nM.

As to `O=C(c1nc(-c2ccc(Cl)cc2)c2cc(Cl)ccc2n1)N1CCCCCC1`, the figures for the inhibition in assay [1] and in assay [3] were 0% and 77%, respectively.

Turning to `CCC(C)NC(=O)c1nc(-c2ccccc2Cl)c2ccccc2n1` (stereo unspecified), the results for the inhibition in assay [1] and in assay [3] were 0% and 63%, respectively.

For `O=C(c1nc(-c2ccccc2Cl)c2cc(Cl)ccc2n1)N1CCCCCC1`, the inhibition in assay [1] worked out at 0%. This compound had an inhibition constant (Ki) in assay [2] of 415 nM.
